According to patent US10543157B2, “Method of treating a hair disorder with N-hydroxypyridinones” (The Procter & Gamble Company, priority 2016, dated 2020):
Structures can show the parent of a compound that is named as a salt.

Assays:
HIF-1α = assay: In-vitro cell based HIF-1 stabilization (ELISA); settings: human dermal fibroblasts, 4 hrs treatment, normalized to cytochrome c
Text: (§1) Wherein R′ and R″ are independently either hydrogen or a substituted or unsubstituted hydrocarbon group having between 1 and 20 carbon atoms. Compounds of this class can be synthesized following the procedure disclosed in U.S. Pat. No. 5,675,013. In certain aspects, the 2-pyridinol-N-oxide compound is 1-hydroxy-6-(octyloxy)-2(1H)-Pyridinone. This compound can be synthesized following the procedure disclosed in U.S. Pat. No. 5,675,013. Methods In-Vitro Cell Based Method for Measuring HIF-1 Stabilization and VEGF Induction: Human dermal fibroblasts are maintained and treated in Dulbecco's Modified Eagle Medium (DMEM) supplemented with 10% fetal bovine serum (FBS) and 1% penicillin/streptomycin. For HIF and VEGF experiments, cells are plated at 10,000 cells per well in 96-well plates. After two days, cells are treated with materials of interest solubilized in DMSO. DMSO concentration in media never exceeded 0.5%. Treatment times are 4 hrs for HIF-1a and 24 hrs for VEGF. Analytes are assayed via ELISA. After 4 hrs treatment, cells are fixed and assayed for HIF-1a using the Human/Mouse Total HIF-1a Immunoassay (R&D Systems) according to manufacturer instructions. After 24 hrs treatment, spent culture media are harvested and assayed for VEGF using the V-PLEX Human VEGF Kit (MSD) according to manufacturer instructions. HIF-1a and VEGF signals are normalized to cytochrome c signal and ATP signal, respectively, and then compared to that of untreated control. Half-maximal effective concentrations of materials are calculating using GraphPad Prism version 6 software or any other suitable software.

VEGF = assay: In-vitro cell based VEGF induction (ELISA); settings: human dermal fibroblasts, 24 hrs treatment, spent media, normalized to ATP
Text: as §1

[1] = test system: telogen (resting) hairs of scalp; assay: Clinical study #2, telogen hair count; assay type: in vivo, human; settings: for TELOGEN Hair counts Change from Baseline Mean +/− SE / TELOGEN Hair counts Difference of CFBs Mean +/− SE: time not given in table (text: week 8)
Text: (§2) Subjects have the imaging sites located and tattoos placed within the imaging sites to mark the area that will be used for image capture. Three days post-tattoo placement, subjects will begin the pretreatment phase during which they applied their pretreatment products on the designated side of their scalp (left/right) for 11 days as a way of training subjects on the tonic application procedures. After the pretreatment phase has been completed, qualified subjects begin the 16-week treatment phase. Within each treatment group, left/right product assignments are randomized (tonic product and vehicle). In the first study subjects applied the assigned tonic product to the designated side of the scalp twice a day. The morning before each site visit, subjects wash and dry their hair and refrain from applying their test products and any styling aides until after their study visit has been completed. Subjects are instructed to wash hair at least every other day with a standard 2-in-1 shampoo during the entire washout and treatment phases. In the second study, after the pretreatment phase has been completed, subjects had their hair washed using the standard shampoo (½ head washing procedure) by a trained operator and blown dry by themselves. After washing hair (no treatment products and no styling products after washing), the two 1.8×1.8 cm imaging sites on the midfrontal/parietal scalp are clipped for hair count analysis as described below. Site staff then apply the two treatment products to the assigned sites (3×3 cm) on the scalp. Subjects return to the study site later in the day and site staff apply the 2nd application of treatment products for that day (i.e. twice a day tonic application) to each site. The following day, the subjects return to the test site and have their hair washed using the standard shampoo (½ head washing procedure) by site staff and blown dry themselves. Images of the two sites are captured for anagen hair count.
(§3) The following day and for every day during the 8-week treatment phase subjects returned to the study site in the morning and had their hair washed by site staff (½ head washing procedure) and blown dry by themselves in the morning before the 1st application of treatment products of the day. Site staff then apply the two treatment products to the assigned sites (3×3 cm) on the scalp. Subjects return to the study site later in the day and site staff apply the 2nd application of the treatment products for that day (i.e. twice a day tonic application) to each site.
(§4) An efficacy end point of these studies is the change from baseline in target area hair count (hairs/cm2) at week 8 and/or 16, as applicable. Initial hair count and growth phase assessments are performed at baseline and at weeks 8 and 16, as applicable, in a designated target area of the scalp identified by the mini tattoo applied at baseline. The assessments are performed using a 1.8-cm2 square template centered over the mini tattoo. Hair within the template is clipped to approximately 1 mm in length. Photographic imaging equipment is supplied by Canfield Scientific Inc (Fairfield, N.J.) and is used to take macrophotographs of the shaved target area. The equipment comprises a Nikon D-SLR camera body (Nikon Corporation, Tokyo, Japan), Nikkor 60 MM F2.8 lens (Nikon Corporation), and a Canfield Epiflash (Canfield Scientific Inc, Fairfield, N.J.) with a glass contact plate and is preset and locked for magnification, f-stop, and exposure control. The analysis of the hair count photographs is performed by Canfield's core imaging laboratory. (ref: Harness J A, Kohut B, Garner J, Canfield W, Canfield D, Bertolino A. Evaluation of hair count and thickness measurements in male and female pattern hair loss using a computer-assisted technique. Poster presented at: European Hair Research Society; Zurich, Switzerland, Jul. 7-9, 2005.) The same 1 cm^2 area is mapped among the baseline, week 8, and week 16 images using the dot tattoo as a reference. […]

[2] = test system: scalp hair (target area hair count); assay: Clinical study #2, split-scalp, total hair count; assay type: in vivo, human; settings: topical twice a day
Protocol: (§5) Two randomized, double-blind, vehicle-controlled split-scalp studies are conducted as follows:
as §2
as §3, with “The following day and for every day during the 8-week treatment phase subjects returned to the” left out
An efficacy end point of these studies is the change from baseline in target area hair count (hairs/cm2) at week 8 and/or 16, as applicable. […]

[3] = test system: scalp hair (target area hair count); assay: Clinical study #1, split-scalp, total hair count; assay type: in vivo, human; settings: for Total Hair Count Change from Baseline Mean +/− SE / Total Hair Count Difference of CFBs (active minus vehicle) Mean +/− SE: topical twice a day, test compound 1%, minoxidil 2% (Rogaine for Women)
Protocol: as §5
Two weeks prior to the Baseline visit, subjects are randomized into one of the 2 treatment groups appearing in the table below.
as §2
as §4, with “reference. Each image is then assigned a definite tracking number and randomized before analysis. The compliant and validated Canfield Hair Metrix (Canfield Scientific Inc, Fairfield, N.J.) image analysis application measures the total number of hair fibers and number of telogen and anagen hair.” for “reference.”

[4] = test system: anagen (growing) hairs of scalp; assay: Clinical study #2, anagen hair count; assay type: in vivo, human; settings: for ANAGEN Hair counts Change from Baseline Mean +/− SE / ANAGEN Hair counts Difference of CFBs Mean +/− SE: time not given in table (text: week 8)
Text: as §2, §3
as §4, with “control.” for “control. The analysis of the hair count photographs is performed by Canfield's core imaging laboratory. (ref: Harness J A, Kohut B, Garner J, Canfield W, Canfield D, Bertolino A. Evaluation of hair count and thickness measurements in male and female pattern hair loss using a computer-assisted technique. Poster presented at: European Hair Research Society; Zurich, Switzerland, Jul. 7-9, 2005.) The same 1 cm^2 area is mapped among the baseline, week 8, and week 16 images using the dot tattoo as a reference.”

[5] = Study #2, 16 weeks (so in the source)
[6] = versus vehicle (minoxidil: versus baseline and vehicle), week 8

Row | Structure (SMILES) | EC50 (VEGF) | EC50 (HIF-1α; Fibroblast) | EC50 (VEGF; Fibroblast) | TELOGEN Hair counts Change from Baseline Mean +/− SE [1] | TELOGEN Hair counts Difference of CFBs Mean +/− SE [1] | Total Hair Count Change from Baseline Mean +/− SE ([3]; Study #1, 8 weeks) | Total Hair Count Difference of CFBs (active minus vehicle) Mean +/− SE ([3]; Study #1, 8 weeks) | Total Hair Count Change from Baseline Mean +/− SE ([3]; Study #1, 16 weeks) | Total Hair Count Difference of CFBs (active minus vehicle) Mean +/− SE ([3]; Study #1, 16 weeks) | ANAGEN Hair counts Change from Baseline Mean +/− SE [4] | ANAGEN Hair counts Difference of CFBs Mean +/− SE [4] | other results
1 | Cc1cc(CC(C)CC(C)(C)C)n(O)c(=O)c1 (stereo not shown) [1-Hydroxy-4-methyl-6-(2,4,4-trimethylpentyl)pyridin-2(1H)-one ethanolammonium salt] | 2.1 µM |  |  |  |  |  |  |  |  |  |  | EC50 (HIF-1α): 0.4 µM
2 | CCOC(=O)c1ccnc(C(=O)OCC)c1 [2,4-DPD, 2,4-pyridinedicarboxylic acid, diethyl ester, reference compound] |  | 406 µM |  |  |  |  |  |  |  |  |  | EC50 VEGF Induction (VEGF): no response
3 | Cc1cc(C2CCCCC2)n(O)c(=O)c1 [6-cyclohexyl-1-hydroxy-4-methyl-2(1H)-pyridinone] |  | 3.9 µM | 2.5 µM |  |  |  |  |  |  |  |  | 
4 | Nc1cc(N2CCCCC2)nc(N)[n+]1[O-] [Minoxidil, reference compound] |  |  |  | −4.07 +/− 1.71 hairs/cm^2 | −7.45 +/− 1.85 hairs/cm^2 | 14.3 +/− 2.98 hairs/cm^2 | 11.29 +/− 3.02 hairs/cm^2 | 14.83 +/− 3.53 hairs/cm^2 | 13.45 +/− 3.47 hairs/cm^2 | 8.66 +/− 1.75 hairs/cm^2 | 7.79 +/− 1.87 hairs/cm^2 | Total Hair Count Change from Baseline Mean +/− SE [2, 5]: 12.93 +/− 1.77 hairs/cm^2; Total Hair Count Difference of CFBs (active minus vehicle) Mean +/− SE [2, 5]: 5.76 +/− 2.1 hairs/cm^2
5 | CCCCCCCCOc1cccc(=O)n1O [N-Hydroxy-6-octyloxypyridine-2(1H)one, ethanolamine salt] | 13 µM |  |  |  |  |  |  |  |  |  |  | 
6 | CCCCCCCCOc1cccc(=O)n1O [N-Hydroxy-6-octyloxypyridine-2(1H)one] |  | 17 µM | 30 µM | 2.96 +/− 1.11 hairs/cm^2 | 0.51 +/− 1.21 hairs/cm^2 | 6.15 +/− 1.91 hairs/cm^2 | 3.94 +/− 1.71 hairs/cm^2 | 3.11 +/− 1.79 hairs/cm^2 | 3.27 +/− 1.73 hairs/cm^2 | 3.82 +/− 1.14 hairs/cm^2 | 3.18 +/− 1.22 hairs/cm^2 | telogen effluvium (shedding) ([1]; conclusion drawn from telogen counts): will not cause telogen effluvium; number of telogen (resting) hairs (in words) [1, 6]: little or no effect; Total Hair Count Change from Baseline Mean +/− SE ([2]; Study #2, 8 weeks, 0.9%): 10.13 +/− 1.15 hairs/cm^2; Total Hair Count Difference of CFBs (active minus vehicle) Mean +/− SE ([2]; Study #2, 8 weeks, 0.9%): 3.35 +/− 1.37 hairs/cm^2; hair count response as share of the minoxidil response, on average ([3]; Study #1, average of week 8 and 16): 29%; hair count from baseline and above vehicle treatment (in words) ([3]; Study #1, week 8 & 16 (p=0.019 and p=0.045)): significant increase in hair count; number of anagen (growing) hairs (in words) [4, 6]: significant increase in growing hairs
